Assay [1] has as its system CHO. Kind of assay: Displacement of CGP-64213 from GABA B1-ASA receptor mutant expressed in CHO cells at 1 uM. Format: cell-based.
The subject of assay [2] is CHO. The assay can be described thus: Binding affinity at intracellular DsRed2-tagged GABA B receptor expressed in CHO cells at 1 uM by fluorescence confocal microscopy based photoaffinity labeling. In kind it is cell-based.
The nature of assay [3]: Antagonist activity at GABA B receptor expressed in HEK293 cells assessed as inhibition of GABA-induced IP production after 15 mins. In kind it is functional, cell-based. To be noted: HEK293, 0.25 h.
Assay [4] relates to CHO. Kind of assay: Binding affinity at intracellular GABA B receptor expressed in CHO cells at 1uM before 15 mins of UV irradiation by […] microscopy based photoaffinity labeling. In kind it is cell-based.
Assay [5] deals with CHO. The assay can be described thus: Increase in labeling efficiency in CHO cells expressing GABA B1-ASA receptor mutant after UV irradiation. In kind it is cell-based.
The test system of assay [6] is CHO. The assay can be described thus: Binding affinity at cell surface GABA B receptor expressed in CHO cells at 1 uM before 15 mins of UV irradiation by […] microscopy based photoaffinity labeling.
A further assay has as its system HEK293. Kind of assay: Antagonist activity at GABA B receptor expressed in HEK293 cells assessed as inhibition of GABA-induced IP production at 10 uM after 15 mins. In kind it is functional, cell-based.

Active and inactive are the calls of the source. No cut-off for these calls is given here.

In the case of `CC1=CC(C)=[N+]2C1=C(CCCC(=O)NCc1cn(CC(=O)NCCOCCOCCOc3cc(C4(C(F)(F)F)N=N4)ccc3C(=O)NCCCCCP(=O)(O)C[C@@H](O)CN[C@H](C)c3cccc(C(=O)O)c3)nn1)c1c(C)cc(C)n1[B-]2(F)F`, the outcome in the assay on CHO [1], with CHO [5] and with CHO [6] was Active. In addition, the outcome in the assay on CHO [2] and in the assay with CHO [4] was inactive. Also, the concentration for half-maximal inhibition (IC50) (in general, the midpoint of a concentration-inhibition curve) in assay [3] worked out at 1030 nM.
For `CC1=CC(C)=[N+]2C1=C(CCCC(=O)NCCOCCOCCOc1cc(C3(C(F)(F)F)N=N3)ccc1CO)c1c(C)cc(C)n1[B-]2(F)F`, the result in the assay on CHO [1] and with HEK293 was inactive.
